In patent US11884675B2, “Heterocyclic compounds as triggering receptor expressed on myeloid cells 2 agonists and methods of use” (AMGEN INC., priority 2020, dated 2024):
Marks after values point to notes of the source that are not given here. Values belong to the compound of their own block, whether it stands above or below them.

Experiments:
[1] = system: hTREM2-CV knock-in transgenic mice; experiment: IP-10 and CCL2 expression in brain and plasma of mice after acute dosing (TREM2 target engagement, MSD V-PLEX); type: in vivo, mouse; conditions: 24 hours
Procedure: IP-10 expression in the brain and plasma of mice after administration of Example 192 and a TREM2 agonist antibody
To test TREM2 target engagement in an acute dosing paradigm using the compound of Example 192 (5-(4-chloro-2-fluorophenyl)-2,3-dimethyl-7-((2R,4S)-2-(1-methyl-1H-pyrazol-4-yl) tetrahydro-2H-pyran-4-yl)pyrido[3,4-b]pyrazine), hTREM2-CV knock-in transgenic mice were dosed using oral gavage (PO) twice a day (0 and 10 h) followed by sample collection at 24 hours. 6 animals received the compound of Example 192 at 50 mg/kg, and 6 animals received vehicle only (2% Hydroxypropyl Methylcellulose, 1% Tween-80 in PBS). In the same experiment, an anti-hTREM2 Antibody Ab-1 was dosed intraperitoneally (IP) at 100 mg/kg (control was a non-binding matched IgG isotype control). Ab-1 is a murinized version of a human TREM2 agonist antibody, first described as an engineered variant of antibody 13E7 in PCT Application Publication WO2018/195506A1. Ab-1 has an HC according to SEQ ID NO:9, an LC according to SEQ ID NO:10, and exemplifies an anti-TREM2 antibody having the CDRs according to SEQ ID NOS:1-6. Twenty-four hours following the zero-hour dose, mice were humanely euthanized for blood collection prior to cardiac perfusion with PBS and brain harvest. Brains were micro dissected into right and left regions of interest (including the cortex and hippocampus) for independent processing of cytokine and mRNA expression profiles. Whole blood was collected into EDTA-containing vials to prevent coagulation, and centrifuged to isolate the plasma fraction before storage at −80° C. Right and left hemisphere cortices were flash frozen in liquid nitrogen and stored at −80° C. before lysis and homogenization.
Plasma and brain lysates were analyzed for IP-10 (CXCL10) and CCL2 (MCP1) expression using a Meso Scale Discovery (MSD) multi-array reader and V-PLEX kits per manufacturer's protocols.
The upregulation of IP-10 was more robust, and so IP-10 levels were analyzed in plasma from the same experiment.

[2] = system: hTREM2-CV knock-in transgenic mice; experiment: Nanostring nCounter Murine Neuroinflammation panel, pathway analysis (PC1 scores) in hippocampi; type: in vivo, mouse
Procedure: (§1) Nanostring analysis of gene expression profiles after administration of Example 192 and a TREM2 agonist antibody in a mouse model
(§2) To assess the impact of TREM2 agonism on cellular processes and pathways, the right hemisphere hippocampi from the acute dosing of the compound of Example 192 and […] Ab-1, as described in Example A3, were analyzed for gene expression changes. Cells from frozen hippocampi were lysed, and RNA was isolated. Key gene expression profiles were analyzed using the nCounter Murine Neuroinflammation panel of 770 genes related to inflammation in the CNS. Results of individual gene expression changes relative to the mean of several housekeeper genes were grouped in pathways of interest and assigned a relative score using the nSolver analysis software.
(§3) Nanostring nSolver software includes a module for Cell Type Profiling that identifies genes linked to cell type in an experiment. […] Pathway analysis was also performed. Genes associated with the adaptive immune response, innate immune response, microglia function, cytokine signalling, and cell cycle were all increased in hippocampi from animals treated with the compound of Example 192 and Ab-1. Table 22 reports the effects of the compound of Example 192 and Ab-1 on these genes, where the values reflect PC1 scores from principal component analysis of the gene set.

[3] = system: hTREM2-CV knock-in transgenic mice; experiment: Nanostring nCounter Murine Neuroinflammation panel, Cell Type Profiling scores in hippocampi; type: in vivo, mouse
Procedure: as §1, §2, §3

[4] = target: T1, hTREM2 (Homo sapiens, UniProt Q9NZC2); experiment: TREM2 activity by cellular Syk phosphorylation (AlphaScreen/AlphaLISA) in TREM2/DAP12-HEK cells, used for Examples 1-305; type: cell-based; set-up: expressed in transfected cells; conditions: HEK293 Cells
T1 sequence (Q9NZC2 19-230): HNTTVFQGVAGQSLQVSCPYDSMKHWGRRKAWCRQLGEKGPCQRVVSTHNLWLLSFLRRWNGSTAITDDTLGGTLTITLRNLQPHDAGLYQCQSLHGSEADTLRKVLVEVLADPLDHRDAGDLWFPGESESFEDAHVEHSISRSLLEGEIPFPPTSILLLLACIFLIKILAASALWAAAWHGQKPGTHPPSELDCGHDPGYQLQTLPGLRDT
T1 sequence (O43914 22-113 partner): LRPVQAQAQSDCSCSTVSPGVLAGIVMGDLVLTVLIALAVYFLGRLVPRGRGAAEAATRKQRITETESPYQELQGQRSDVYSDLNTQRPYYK
Outline: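 Phospho-Syk (Tyr525/526) over total Syk quantified by AlphaScreen in lysates of cloned TREM2/DAP12-overexpressing HEK293 cells after 45 min compound treatment at room temperature, 1% final DMSO. Values expressed relative to 100 nM anti-TREM2 antibody (positive) and isotype IgG (negative) controls; curves fitted with 4-parameter logistic model.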

[5] = target: T1, hTREM2; experiment: TREM2 agonist potency by Syk phosphorylation (AlphaLisa) in HEK293T-hTREM2 cells, used for Examples 306-429; type: cell-based; set-up: expressed in transfected cells; host or cells: HEK293T (HEK293T-hTREM2 cells); conditions: HEK293 Cells
Outline: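 HEK293T cells expressing human TREM2 and DAP12, plated 20-24 h before, were exposed to compounds for 45 min at room temperature, then lysed. Phospho-Syk read by AlphaLisa; % activation from a standard curve and EC50 from a four-parameter log(agonist) fit.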

[6] = Example 192 50 mg/kg PO at 0 and 10 h, Ab-1 100 mg/kg IP, compared to vehicle-treated animals
[7] = PC1 score, mean score (standard deviation)
[8] = hippocampi after acute dosing, mean score (standard deviation)
[9] = right hemisphere hippocampi, acute dosing as in Example A3

- EC50 [5]: ≤ 50 nM
SMILES: Cc1nc2nc([C@H]3CCO[C@@H](c4cnn(C5CC5)c4)C3)nc(-c3ccc(C(F)(F)F)cc3F)c2nc1C [Example 413, 2-((2R,4S)-2-(1-cyclopropyl-1H-pyrazol-4-yl)tetrahydro-2H-pyran-4-yl)-4-(2-fluoro-4-(trifluoromethyl)phenyl)-6,7-dimethylpteridine]

- EC50 [5]: ≤ 50 nM
SMILES: Cc1nc2nc(N3C[C@H](C)O[C@@H](c4cnn(C5CC5)c4)C3)nc(-c3ccc(Cl)cc3F)c2nc1C (racemic) [Example 372, 4-(4-(4-chloro-2-fluorophenyl)-6,7-dimethylpteridin-2-yl)-2-(1-cyclopropyl-1H-pyrazol-4-yl)-6-methylmorpholine]

- EC50 [5]: ≤ 50 nM
SMILES: Cc1nc2nc(N3C[C@@H](c4cnn(C5CC5)c4)O[C@@H](C)C3)nc(-c3ccc(Cl)cc3F)c2nc1C [Example 424, (2R,6S)-4-(4-(4-chloro-2-fluorophenyl)-6,7-dimethylpteridin-2-yl)-2-(1-cyclopropyl-1H-pyrazol-4-yl)-6-methylmorpholine]

- EC50 [5]: 50 to 500 nM
SMILES: Cc1nc2cc(N3C[C@@H](C)O[C@@H](c4cnn(C5CC5)c4)C3)nc(C34CC(C(F)(F)F)(C3)C4)c2nc1C (racemic) [Example 379, 2-(1-cyclopropylpyrazol-4-yl)-4-[2,3-dimethyl-5-[3-(trifluoromethyl)-1-bicyclo[1.1.1]pentanyl]pyrido[3,4-b]pyrazin-7-yl]-6-methyl-morpholine]

- EC50 [5]: ≤ 50 nM
SMILES: Cc1cc([C@H]2C[C@@H](c3cc4nc(C)c(C)cc4c(-c4ccc(Cl)cc4F)n3)CCO2)ccn1 (racemic) [Example 401, 5-(4-chloro-2-fluoro-phenyl)-2,3-dimethyl-7-[2-(2-methyl-4-pyridyl)tetrahydropyran-4-yl]-1,6-naphthyridine]

More lines, now with the values behind:

SMILES: Cc1nc2cc([C@H]3CCO[C@@H](c4cnn(C)c4)C3)nc(-c3ccc(Cl)cc3F)c2nc1C (single isomer, unassigned) [Example 192]
- peripheral IP-10 levels in the plasma fraction ([1]; 50 mg/kg PO at 0 and 10 h): no apparent cytokine upregulation
- CCL2 (MCP1) in cortical lysates [1, 6]: induced upregulation
- IP-10 (CXCL10) in cortical lysates [1, 6]: induced upregulation
- Pathway Score Adaptive Immune Response [2, 7]: 0.639 (0.929) *
- Pathway Score Cell Cycle [2, 7]: 0.398 (0.414) *
- Pathway Score Cytokine Signaling [2, 7]: 0.180 (0.514) *
- Pathway Score Innate Immune Response [2, 7]: 0.490 (0.674) *
- Pathway Score Microglia Function [2, 7]: 0.345 (0.908) *
- genes associated with cell cycle ([2]; acute dosing as in Example A3): increased
- genes associated with cytokine signalling ([2]; acute dosing as in Example A3): increased
- genes associated with microglia function ([2]; acute dosing as in Example A3): increased
- genes associated with the adaptive immune response ([2]; acute dosing as in Example A3): increased
- genes associated with the innate immune response ([2]; acute dosing as in Example A3): increased
- Microglia Score (Cell Type Profiling) [3, 8]: 6.82 (0.090) *
- astrocyte score (Cell Type Profiling) [3, 8]: 8.86 (0.077)
- neuron score (Cell Type Profiling) [3, 8]: 8.81 (0.185)
- astrocyte score (Cell Type Profiling) [3, 9]: no change
- microglia score (Cell Type Profiling, microglial-associated genes) [3, 9]: increase
- neuron score (Cell Type Profiling) [3, 9]: no change
- EC50 [4]: ≤ 50 nM
- hTREM2 Emax [4]: ++++ (Emax>250)

SMILES: Cc1cnc2c(-c3ccc(F)cc3F)nc(N3C[C@H](C)O[C@@H](c4cnn(C5CC5)c4)C3)nc2n1 (racemic) [Example 370, 2-(1-cyclopropyl-1H-pyrazol-4-yl)-4-(4-(2,4-difluorophenyl)-7-methylpteridin-2-yl)-6-methylmorpholine]
- EC50 [5]: 50 to 500 nM

SMILES: Cc1cc([C@H]2CN(c3cc4nc(C)cnc4c(-c4ccc(F)cc4F)n3)CCO2)ccn1 [Example 334, (S)-4-(5-(2,4-difluorophenyl)-2-methylpyrido[3,4-b]pyrazin-7-yl)-2-(2-methylpyridin-4-yl)morpholine]
- EC50 [5]: ≤ 50 nM

SMILES: Cc1nc2nc([C@@H]3CCO[C@@H](c4cnn(C5CC5)c4)C3)nc(-c3ccc(F)cc3Cl)c2nc1C [Example 321, 4-(2-chloro-4-fluorophenyl)-2-((2R,4R)-2-(1-cyclopropyl-1H-pyrazol-4-yl)tetrahydro-2H-pyran-4-yl)-6,7-dimethylpteridine]
- EC50 [5]: 50 to 500 nM

SMILES: Cc1cnc2c(-c3ccc(F)cc3F)nc(N3C[C@@H](C)O[C@@H](c4cnn(C5CC5)c4)C3)nc2n1 (racemic) [Example 371, 2-(1-cyclopropyl-1H-pyrazol-4-yl)-4-(4-(2,4-difluorophenyl)-7-methylpteridin-2-yl)-6-methylmorpholine]
- EC50 [5]: ≤ 50 nM

SMILES: Cc1nc2cc(N3C[C@H](C)O[C@@H](c4cnn(C5CC5)c4)C3)nc(-c3ccc(F)cc3F)c2nc1C (racemic) [Example 357, 2-(1-cyclopropyl-1H-pyrazol-4-yl)-4-(5-(2,4-difluorophenyl)-2,3-dimethylpyrido[3,4-b]pyrazin-7-yl)-6-methylmorpholine]
- EC50 [5]: ≤ 50 nM

SMILES: Cc1cc([C@H]2C[C@@H](c3cc4nc(C)cnc4c(-c4ccc(Cl)cc4F)n3)CCO2)ccn1 (racemic) [Example 310, 5-(4-chloro-2-fluorophenyl)-2-methyl-7-(2-(2-methylpyridin-4-yl)tetrahydro-2H-pyran-4-yl)pyrido[3,4-b]pyrazine]
- EC50 [5]: 50 to 500 nM
